Measured values taken from patent publication US4665086A, “Method for minimizing disturbances in circadian rhythms of bodily performance and function” (priority 1983, dated 1987).
“Also recorded” adds a separate entry of the source.

Experiments:
[1] = system: circadian rhythms in humans (jet lag); assay: Example 1: Subject A, flight Melbourne-North Carolina-Melbourne, melatonin at local bedtime; assay type: in vivo, human
From the text: Subject A was a Professor of Physiology who had never taken melatonin before. |Flight from Melbourne → North Carolina, U.S.A. → Melbourne. |Details of activity schedule, sleeping time, melatonin administration. In this example Subject A used a preparation of crystalline melatonin in a gelatin capsule.

[2] = system: circadian rhythms in humans (jet lag); assay: Example 3: Subject A, flight Melbourne-Stockholm-London-Melbourne, melatonin at local bedtime; assay type: in vivo, human; settings: 5 mg oral
From the text: |Subject A Flight from Melbourne → Stockholm → London |Detail of activity schedule, sleeping times, melatonin adminsitration.

[3] = system: circadian rhythms in humans (jet lag); assay: Example 5: Subject B, double-blind trial, Capsule A (melatonin) vs Capsule B (placebo), flight Melbourne-Geneva-Rotterdam-Melbourne; assay type: in vivo, human
From the text: Subject B Flight from Melbourne→Geneva→Rotterdam→Melbourne 30.1.84-19.2.84
This was a double-blind trial. The subject, a Clinical Professor who had never taken Melatonin before, was given two bottles labelled A and B containing identical-looking gelatin capsules, and told to take one capsule A on going to bed, and again if awaking in the middle of the night, for the first 4 days after arrival in Geneva. They were told to take one capsule B according to the same schedule after return to Melbourne, and to record the quality of each night's sleep and feelings during the daytime. Capsule A contained 5 mg Melatonin. and capsule B contained a placebo (sucrose). Only after the subject had completed their written report 4 days after returning to Melbourne were they told which pills contained Melatonin and which contained placebo.

[4] = system: circadian rhythms in humans (jet lag); assay: Example 6: Subject C, flight Melbourne-Los Angeles-Washington-London-Vancouver-Melbourne, verbatim account; assay type: in vivo, human; settings: for overall effect on jet-lag (subject's impression, comment): 5 mg capsule on retiring and a second on awaking
Procedure: Subject C Flight from Melbourne→Los Angeles→Washington→London→Vancouver→Melbourne. 15.2.84-27.3.84 The subject, a Professor who had never taken Melatonin before, was given gelatin capsules containing 5 mg Melatonin and instructed to take one capsule on going to bed in the evening (local time) after arrival at their destination, and to take a further capsule if they awoke in the night.

[5] = Example 9: absorption and clearance of orally administered melatonin, plasma radioimmunoassay; assay type: in vivo, human
From the text: This was two hours after a light breakfast of apple juice, cereal and tea. Blood sampling was continued until 1400 hrs. The blood was immediately centrifuged, and the plasma frozen until assayed for melatonin using a specific radioimmunoassay developed in the inventors' laboratory as a modification of the procedure originally described by D. J. Kennaway et al. (Endocrinology 110, 1766, 1982.) The results are shown in the accompanying FIG. 2.

[6] = system: body temperature rhythm in humans (shift work); assay: Example 10: Subject F, simulated rapid rotating shift work roster, double blind melatonin vs placebo, rectal temperature; assay type: in vivo, human; settings: for sleep induction: from diary descriptions
Procedure: The subject was a […] psychology lecturer who had never taken Melatonin before. In order to evaluate the effects of Melatonin on adaptation to rotating shift work conditions the subject undertook three, eight hour phase advances in their sleep-wake/work-rest schedule at six day intervals. Melatonin was administered under double blind conditions on the first phase advance and placebo taken on the second. […] This entrainment was not a secondary consequence of sleep induction. The data can be taken as evidence for Melatonin as an effective chronobiotic for adaptation to shiftwork.
The experiment was designed to incorporate the salient features of a rapidly rotating shift-work schedule combined with aspects of lighting changes encountered on destination arrival after intercontinental jet flight. […] The experimental protocol differed from that normally found in shift work in that the subject had to spend the dark period in bed in an isolation unit irrespective of whether sleepiness was felt or not; whereas, no sleep was allowed during the light period no matter how tired the subject felt. During the light period the subject was free to leave the isolation unit to engage in work or leisure related activities.
The experiment was carried out over the long vacation, the isolated unit being situated half below ground under one of the residential colleges on La Trobe University Campus. The area was, therefore, fairly well buffered against external noise and a ventilation exhaust fan was continuously running, which aided extraneous noise reduction. Windows located high up on the walls of the kitchen alcove and shower/toilet rooms were blacked out. The main sleeping-living room was illuminated by two fluorescent tubes (40 watt) while the alcove and bathroom areas had one, 40 watt, fluorescent light in each. All lights were controlled by a single time clock set to give an LD 16:8 cycle, lights on at 0730 hours during baseline. A bedside lamp was used for reading during the light period. No lighting was allowed during the dark period for any reason. Therefore, events such as quenching of thirst and urination had to take place in total darkness. Temperature of the isolation area was maintained within the range 20°-22° C. throughout the experiment. During stage A and pre-baseline breakfast was ingested between 0800 and 0900, lunch between 1300 and 1400, and dinner between 1800 and 2000. During stages B and C meals and intermeal intervals were scheduled for equivalent times (relative to lights on) to those during stage A.
During stages B and C the subject was instructed to take one capsule just prior to lights off. If still awake one hour later, the subject was to take a second capsule. Similar instructions applied to the second and third hours after lights-off but no capsule was to be taken during the last four hours of darkness i.e. maximum number of capsules to be taken was four. Capsules were refrigerated and had to be taken in complete darkness once lights were off. A double blind procedure was employed with stage B being drug (Melatonin, Sigma, 5mg/capsule) and stage C being placebo (sucrose filled capsule). No capsules were taken on the final dark period at the end of each stage i.e. days 10 and 16.
Rectal temperature was sampled every 12 minutes using a Vitalog PMS 8 portable microcomputer. A diary of life events was kept. These included details of sleep, work, leisure, meals, beverages, urination and defecation. […]

[7] = system: hamsters, sheep, ferrets and deer; settings: physiological doses by mouth, implant or injection; cited from earlier work
[8] = Capsule A = 5 mg Melatonin, Geneva

## COc1ccc2[nH]cc(CCNC(C)=O)c2c1 [melatonin, 5-methoxy-N-acetyltryptamine]
[1]; 2.5-5.0 mg oral melatonin at bedtime and on waking
  symptoms of jet lag / fatigue (comment): no symptoms of jet lag whatsoever; also recorded: never felt any fatigue whatsoever
[1]; 2.5 or 5.0 mg oral per dose
  feeling on awakening after melatonin sleep (diary): Felt fresh, relaxed, not jet-lagged; also recorded: felt fresh, relaxed
  sleep after taking melatonin (diary): fell asleep again
[1]; awoke during the night in North Carolina, oral crystalline melatonin in gelatin capsule
  time to fall asleep again after taking additional melatonin: ≤ 15 min
[2]
  sleep after taking melatonin (diary, comment): sleep well at an inappropriate time of the day
[2]; 8-9 hour time change
  feeling jet-lagged (comment): At no time during the day either in Sweden or on their return to Melbourne did they feel jet-lagged
[2]; listed as Melatonin
  feeling on awakening / during day after melatonin sleep (diary): Feeling fine; also recorded: Felt good; also recorded: feeling good; also recorded: Felt fine
  sleep after taking melatonin (diary, comment): fell asleep again; also recorded: good sleep; also recorded: slept well; also recorded: sleep until 2330 hrs; also recorded: asleep 2400 hrs
[2]; return flight after Singapore
  time to fall asleep after taking melatonin (diary): 3/4
[3]
  time after entering new time zone until able to sleep at period coinciding with early morning in zone of departure: ≤ 24 h
[3]; 5 mg melatonin per capsule, first 4 days in Geneva, double-blind
  subject's blinded conclusion on effect of capsule: making them less tired and more alert in the meetings at WHO in Geneva
[3]; [8]
  feeling during day (diary): felt tired in morning
  sleep after taking capsule (diary): fell asleep again; also recorded: slept well; also recorded: sleep well
[4]
  overall effect on jet-lag (subject's impression, comment): prevented the usual, unpleasant symptoms associated with rapid changes in time zones
[4]; listed as Melatonin
  overall effect on jet-lag (subject's impression, comment): great improvement over my normal experience of jet-lag
[4]; Los Angeles, London (5 h change), Vancouver (8 h change)
  feeling / adjustment the day after melatonin: felt very close to normal; also recorded: feeling normal and appeared to be fully adjusted to the London time; also recorded: felt a little unusual and later, around 4.00 pm felt very sleepy
[4]; first night in Los Angeles
  sleep after taking melatonin: sleep that night appeared normal
[5]; Subject A, 5 mg oral
  plasma melatonin concentration at which subjective feelings of drowsiness were experienced: exceeded 2 ng/ml
  subjective effects coincident with maximal plasma levels: yawning and sleepiness
[5]; human, plasma, po, 5 mg, Subject A, 5 mg oral in gelatin capsule, read-out: time after ingestion to peak plasma concentration (converted)
  Tmax: 1.1 h
[5]; in vivo, po
  plasma values 260 minutes after ingestion relative to normal nocturnal values of around 100 pg/ml plasma: 10 times higher
[6]; Subject F, 22.1.84, first complete day after first phase shift, capsule taken 1515
  time to fall asleep after lights out (diary, Table 2): approx. 30 minutes
[6]; Subject F, first 8 hour advance of darkness
  time by which temperature rhythm was re-established and in phase with the new light-dark cycle: by the third complete day after the phase shift (day 8)
[6]; Subject F, first 8 hour phase advance, 5 mg/capsule before lights off, double blind, contrast to placebo
  entrainment of body (rectal) temperature rhythm: good and accelerated entrainment of the body temperature rhythm; also recorded: phase shifted the rectal temperature rhythm
[6]; Subject F
  sleep induction: did not have the same potent sleep induction as reported by other subjects after intercontinental flight
[6]; Subject F, listed as Melatonin
  sleep induction: aided sleep induction
[7]
  timing of the annual breeding season: capable of altering the timing of the annual breeding season
